Where no end group is shown, it is not given here.
Biological target: T1, α2 β1 integrin (Homo sapiens, UniProt P05556+P17301)
T1 construct: Mg^++ -dependent adhesion of platelets, which use the α2 β1 integrin as a collagen specific receptor; endogenous in cells; host or cells: washed 51Cr-labelled platelets
Experiment: Mg++-dependent adhesion of 51Cr-labeled platelets to type I collagen substrates, peptide inhibition
Format: cell-based
Protocol: Platelet Adhesion-Platelets were washed and labeled with ^51 CrO4 as described in detail by Haverstick et al (22). Platelet adhesion to substrate composed of 0.5% BSA or 20 μg/ml of either type I collagen, laminin or fibronectin in polystryene dishes was determined as previously described in detail (7). Alternately, adhesion assays were carried out in 96 well microtiter dishes (Immulon II, Dynatech). In this case substrate coating- and adhesion assay volumes were adjusted to 100 μl and wash volumes were adjusted to 140 μl per well. Platelets were permitted to adhere for 60 min at a concentration of 1.3-- to 1.8×10^8 platelets/ml, then wash five times in adhesion assay buffer before being lysed with two […] aliquots of 2% SDS which were subsequently pooled and counted.
Peptide Inhibition--After labeling and washing, cells were resuspended at 2.6- to 3.6×10^5 /ml for platelets or 2×10^5 /ml for T47D cells. Aliquots were added to equal volumes of buffer containing appropriate concentrations of the peptides and divalent cations and preincubated for 15 min before being added to the adhesive substrates. Adhesion was quantitated as described above.

T1 sequence (P17301 30-1181): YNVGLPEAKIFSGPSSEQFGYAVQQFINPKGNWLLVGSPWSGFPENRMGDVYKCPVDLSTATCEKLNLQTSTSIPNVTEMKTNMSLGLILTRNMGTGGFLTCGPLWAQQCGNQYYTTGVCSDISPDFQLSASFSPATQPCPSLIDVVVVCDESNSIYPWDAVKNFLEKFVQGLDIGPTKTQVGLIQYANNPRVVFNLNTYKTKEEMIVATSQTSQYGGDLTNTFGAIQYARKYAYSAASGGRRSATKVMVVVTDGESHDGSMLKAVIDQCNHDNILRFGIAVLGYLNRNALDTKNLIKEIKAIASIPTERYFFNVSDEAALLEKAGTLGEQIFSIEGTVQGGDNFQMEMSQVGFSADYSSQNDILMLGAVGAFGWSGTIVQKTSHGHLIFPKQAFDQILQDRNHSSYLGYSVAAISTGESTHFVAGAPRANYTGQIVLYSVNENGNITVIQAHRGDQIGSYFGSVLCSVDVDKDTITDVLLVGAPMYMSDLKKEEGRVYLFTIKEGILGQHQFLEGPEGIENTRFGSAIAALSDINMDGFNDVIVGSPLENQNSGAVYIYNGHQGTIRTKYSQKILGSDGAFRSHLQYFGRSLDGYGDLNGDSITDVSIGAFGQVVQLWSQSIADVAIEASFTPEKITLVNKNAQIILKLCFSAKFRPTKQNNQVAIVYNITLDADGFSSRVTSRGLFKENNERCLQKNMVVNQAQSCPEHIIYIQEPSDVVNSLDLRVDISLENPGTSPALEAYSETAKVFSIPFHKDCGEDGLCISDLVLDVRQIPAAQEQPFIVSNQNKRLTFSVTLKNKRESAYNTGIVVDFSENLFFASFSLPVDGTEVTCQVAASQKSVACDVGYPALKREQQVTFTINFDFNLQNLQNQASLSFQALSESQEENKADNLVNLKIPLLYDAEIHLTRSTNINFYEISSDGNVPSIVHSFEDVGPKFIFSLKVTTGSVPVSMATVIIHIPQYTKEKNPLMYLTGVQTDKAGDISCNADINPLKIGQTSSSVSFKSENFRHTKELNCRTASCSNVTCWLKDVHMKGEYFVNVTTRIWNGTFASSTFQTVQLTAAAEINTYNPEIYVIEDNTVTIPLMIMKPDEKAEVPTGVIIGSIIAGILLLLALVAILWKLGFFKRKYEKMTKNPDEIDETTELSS
T1 sequence (P05556 21-798): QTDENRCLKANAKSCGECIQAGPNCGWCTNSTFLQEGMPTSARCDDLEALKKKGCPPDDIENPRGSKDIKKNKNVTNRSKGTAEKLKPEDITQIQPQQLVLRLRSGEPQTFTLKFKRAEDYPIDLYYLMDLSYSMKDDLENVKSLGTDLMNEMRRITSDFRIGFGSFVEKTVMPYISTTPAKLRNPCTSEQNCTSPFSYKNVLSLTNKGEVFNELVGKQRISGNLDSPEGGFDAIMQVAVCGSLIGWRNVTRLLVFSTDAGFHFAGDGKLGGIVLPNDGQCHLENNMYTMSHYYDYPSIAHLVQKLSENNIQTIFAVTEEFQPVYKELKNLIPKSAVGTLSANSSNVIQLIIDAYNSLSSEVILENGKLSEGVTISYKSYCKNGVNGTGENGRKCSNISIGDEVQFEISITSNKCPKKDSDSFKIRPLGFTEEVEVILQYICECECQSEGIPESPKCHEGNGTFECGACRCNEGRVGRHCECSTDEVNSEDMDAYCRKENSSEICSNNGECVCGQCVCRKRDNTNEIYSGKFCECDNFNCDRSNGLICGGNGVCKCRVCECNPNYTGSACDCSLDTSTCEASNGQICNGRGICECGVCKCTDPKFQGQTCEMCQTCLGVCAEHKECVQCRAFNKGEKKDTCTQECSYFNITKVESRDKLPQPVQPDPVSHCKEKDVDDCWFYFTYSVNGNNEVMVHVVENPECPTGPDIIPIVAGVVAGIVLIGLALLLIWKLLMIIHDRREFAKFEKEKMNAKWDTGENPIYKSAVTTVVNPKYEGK

Inhibitory activity in 1 mM Mg++ as percent of the activity observed in 6 mM Mg++ (1 mM Mg++ versus 6 mM Mg++) [%]	Inhibition of Mg++-dependent platelet adhesion to collagen (4 mM peptide, 2 mM Mg++) [%]	IC50 (read-out: Half-maximal inhibition of Mg++-dependent platelet adhesion to collagen) [µM]	Substance
80	80		KDGEA-NH2 [KDGEA]
		2800	GPAGKDGEAGAQG-NH2 [peptide 430, GPAGKDGEAGAQG]
